From PubChem BioAssay AID1745844 (Carcinogenic Potency Database (CPDB), 2022)

System: rodent lifetime carcinogenesis bioassay, tumor incidence TD50
Assay: carcinogenic potency in animals, long-term in vivo studies, CPDB compilation (AID 1745844)
Details: rat, strain Fischer 344, by gavage

## ClCC(Cl)CCl
females, site: mammary gland, lesion: fibroadenoma, dosed 91 weeks, study length 105 weeks
  TD50: 3.42 mg/kg/day
females, site: palate + pharynx + tongue, lesion: squamous-cell papilloma + squamous-cell carcinoma, dosed 91 weeks, study length 105 weeks
  TD50: 2.93 mg/kg/day
females, site: palate + pharynx, lesion: squamous-cell carcinoma, dosed 91 weeks, study length 105 weeks
  TD50: 8.87 mg/kg/day
females, site: palate + tongue, lesion: squamous-cell papilloma, dosed 91 weeks, study length 105 weeks
  TD50: 5.98 mg/kg/day
females, site: palate, lesion: squamous-cell papilloma, dosed 91 weeks, study length 105 weeks
  TD50: 18.5 mg/kg/day
females, site: pharynx + tongue, lesion: squamous-cell carcinoma, dosed 91 weeks, study length 105 weeks
  TD50: 5.12 mg/kg/day
females, site: thyroid gland, lesion: follicular-cell adenoma + follicular-cell carcinoma, dosed 91 weeks, study length 105 weeks
  TD50: 25.2 mg/kg/day
females, site: thyroid gland, lesion: follicular-cell adenoma, dosed 91 weeks, study length 105 weeks
  TD50: 36.9 mg/kg/day
females, site: tongue, lesion: squamous-cell carcinoma + squamous-cell papilloma, dosed 91 weeks, study length 105 weeks
  TD50: 4.7 mg/kg/day
females, site: tongue, lesion: squamous-cell carcinoma, dosed 91 weeks, study length 105 weeks
  TD50: 10.1 mg/kg/day
females, site: tongue, lesion: squamous-cell papilloma, dosed 91 weeks, study length 105 weeks
  TD50: 9.61 mg/kg/day
males, site: Zymbal's gland, lesion: carcinoma, dosed 94 weeks, study length 104 weeks
  TD50: 297 mg/kg/day
males, site: adrenal medulla, lesion: pheochromocytoma benign, bilateral + pheochromocytoma, benign, dosed 94 weeks, study length 104 weeks
  TD50: 12.4 mg/kg/day
males, site: adrenal medulla, lesion: pheochromocytoma benign, bilateral + pheochromocytoma, complex + pheochromocytoma, malignant + pheochromocytoma, benign, dosed 94 weeks, study length 104 weeks
  TD50: 11.4 mg/kg/day
males, site: all sites, lesion: mononuclear-cell leukemia, dosed 94 weeks, study length 104 weeks
  TD50: 11.9 mg/kg/day
males, site: any site (literature study), lesion: several types, types named in the paper, dosed 94 weeks, study length 104 weeks
  TD50: 1.36 mg/kg/day
males, site: colon + jejunum + rectum, lesion: adenocarcinoma + adenomatous polyp, dosed 94 weeks, study length 104 weeks
  TD50: 73.4 mg/kg/day
males, site: colon + jejunum, lesion: adenocarcinoma, dosed 94 weeks, study length 104 weeks
  TD50: 102 mg/kg/day
males, site: colon + rectum, lesion: adenomatous polyp, dosed 94 weeks, study length 104 weeks
  TD50: 264 mg/kg/day
males, site: forestomach + kidney + palate + pancreas + preputial gland + tongue + Zymbal's gland, lesion: squamous-cell carcinoma + squamous-cell papilloma + tubule adenoma + adenoma + acinar-cell adenoma + acinar-cell adenocarcinoma + ca, dosed 94 weeks, study length 104 weeks
  TD50: 1.1 mg/kg/day
males, site: forestomach, lesion: squamous-cell carcinoma + squamous-cell papilloma, dosed 94 weeks, study length 104 weeks
  TD50: 1.15 mg/kg/day
males, site: forestomach, lesion: squamous-cell carcinoma, dosed 94 weeks, study length 104 weeks
  TD50: 3 mg/kg/day
males, site: forestomach, lesion: squamous-cell papilloma, dosed 94 weeks, study length 104 weeks
  TD50: 1.53 mg/kg/day
males, site: kidney, lesion: tubule adenoma, dosed 94 weeks, study length 104 weeks
  TD50: 4.44 mg/kg/day
males, site: liver, lesion: hepatocellular adenoma + hepatoblastoma + hepatocellular carcinoma, dosed 94 weeks, study length 104 weeks
  TD50: 23 mg/kg/day
males, site: liver, lesion: hepatocellular adenoma + hepatocellular carcinoma, dosed 94 weeks, study length 104 weeks
  TD50: 23 mg/kg/day
males, site: liver, lesion: hepatocellular adenoma, dosed 94 weeks, study length 104 weeks
  TD50: 31.7 mg/kg/day
males, site: palate + tongue, lesion: squamous-cell carcinoma + squamous-cell papilloma, dosed 94 weeks, study length 104 weeks
  TD50: 4.48 mg/kg/day
males, site: palate + tongue, lesion: squamous-cell carcinoma, dosed 94 weeks, study length 104 weeks
  TD50: 8.65 mg/kg/day
males, site: palate + tongue, lesion: squamous-cell papilloma, dosed 94 weeks, study length 104 weeks
  TD50: 8.16 mg/kg/day
males, site: palate, lesion: squamous-cell carcinoma, dosed 94 weeks, study length 104 weeks
  TD50: 11.7 mg/kg/day
males, site: palate, lesion: squamous-cell papilloma, dosed 94 weeks, study length 104 weeks
  TD50: 36.6 mg/kg/day
males, site: pancreas, lesion: acinar-cell adenocarcinoma, dosed 94 weeks, study length 104 weeks
  TD50: 51.5 mg/kg/day
males, site: pancreas, lesion: adenoma + acinar-cell adenoma + acinar-cell adenocarcinoma, dosed 94 weeks, study length 104 weeks
  TD50: 1.65 mg/kg/day
males, site: pancreas, lesion: adenoma + acinar-cell adenoma, dosed 94 weeks, study length 104 weeks
  TD50: 1.65 mg/kg/day
males, site: preputial gland, lesion: adenoma + carcinoma, dosed 94 weeks, study length 104 weeks
  TD50: 9.59 mg/kg/day
males, site: preputial gland, lesion: adenoma, dosed 94 weeks, study length 104 weeks
  TD50: 14 mg/kg/day
males, site: preputial gland, lesion: carcinoma, dosed 94 weeks, study length 104 weeks
  TD50: 28 mg/kg/day
males, site: skin, lesion: basal-cell carcinoma + keratoacanthoma + squamous-cell carcinoma + squamous-cell papilloma + trichoepithelioma, dosed 94 weeks, study length 104 weeks
  TD50: 20.8 mg/kg/day
males, site: skin, lesion: squamous-cell carcinoma + squamous-cell papilloma, dosed 94 weeks, study length 104 weeks
  TD50: 39.6 mg/kg/day
males, site: skin, lesion: squamous-cell papilloma, dosed 94 weeks, study length 104 weeks
  TD50: 51 mg/kg/day
males, site: subcutaneous tissue, lesion: fibroma + sarcoma, dosed 94 weeks, study length 104 weeks
  TD50: 19.6 mg/kg/day
males, site: subcutaneous tissue, lesion: fibroma, dosed 94 weeks, study length 104 weeks
  TD50: 20.2 mg/kg/day
males, site: testis, lesion: interstitial-cell adenoma, bilateral + interstitial-cell adenoma, dosed 94 weeks, study length 104 weeks
  TD50: 1.35 mg/kg/day
males, site: thyroid gland, lesion: c-cell adenoma + c-cell carcinoma, dosed 94 weeks, study length 104 weeks
  TD50: 8.15 mg/kg/day
males, site: thyroid gland, lesion: c-cell adenoma, dosed 94 weeks, study length 104 weeks
  TD50: 10.3 mg/kg/day
males, site: thyroid gland, lesion: follicular-cell adenoma + follicular-cell carcinoma, dosed 94 weeks, study length 104 weeks
  TD50: 35.2 mg/kg/day
males, site: tongue, lesion: squamous-cell carcinoma + squamous-cell papilloma, dosed 94 weeks, study length 104 weeks
  TD50: 7.86 mg/kg/day
males, site: tongue, lesion: squamous-cell carcinoma, dosed 94 weeks, study length 104 weeks
  TD50: 34.7 mg/kg/day
males, site: tongue, lesion: squamous-cell papilloma, dosed 94 weeks, study length 104 weeks
  TD50: 10.2 mg/kg/day
